The structures appear in SMILES notation. Like-named read-outs stand apart in the source and are kept apart here.

Data on 19 compounds can be found in PMC3684613 (PLoS ONE, 2013).

Assay [1] concerns P. falciparum 3D7. Also on record: method as in ChEMBL-NTD. The settings on record: ref ChEMBL-NTD, cited from earlier work.
Assay [2] deals with P. falciparum 3D7. Nature of the assay: DAPI stain fluorescent high content imaging assay, P. falciparum 3D7 (confirmatory screen, Avery). The following applies: Plasmodium falciparum; for EC50: 3D7, read-out: EC50_nM; for inhibition of growth at 5 µM: 3D7, read-out: percent_inh @ 5 uM.
Setting [3] is: original screening data, source (GSK, GNF, StJude), several values separated by ';' in order of sources.

In the case of `CN(C)CCCNc1c2ccccc2nc2ccccc12` [MMV000448], the EC50 with P. falciparum 3D7 [1] (source GNF (GNF-Pf id)) was 32.7 nM; in the assay on P. falciparum 3D7 [1] (source GSK (TCMDC id)) it was 1040 nM; with P. falciparum 3D7 [1] (source StJude (SJ id)) it was 531 nM; in the assay on P. falciparum 3D7 [2], 235 nM. Also, the inhibition of growth at 5 µM in the assay on P. falciparum 3D7 [2] came out at 95%.

For the compound `CCOc1cc2c(cc1OCC)C(c1cc(Cl)c(O)c(OCC)c1)NCC2` (centres unmarked) [MMV000481], in the assay on P. falciparum 3D7 [1] (source StJude (SJ ids)), the EC50 was 3010 nM. Moreover, in the assay with P. falciparum 3D7 [2], the EC50 is 1330 nM and the inhibition of growth at 5 µM is 96%.

As to `CCOc1cc2c(cc1OCC)C(c1cc(C)c(O)c(C)c1)NCC2` (centres unmarked) [MMV000483], in the assay on P. falciparum 3D7 [1] (setting [3]), the EC50 is 1830 nM. In the assay on P. falciparum 3D7 [2], the EC50 was determined as 683 nM and the inhibition of growth at 5 µM is 97%.

Regarding `CCN(CC)c1cc(C)c2cc(NC(=O)c3cccc(OC)c3)ccc2n1` [MMV000498], in the assay on P. falciparum 3D7 [1] (source StJude), the EC50 is 4770 nM. In addition, the inhibition of growth at 5 µM with P. falciparum 3D7 [2] is 97%.

On to `CCCN(CCC)CCCNC(=O)c1cc2c(-c3ccc(OC)c(OC)c3)nn(C)c2s1` [MMV000561], for which the results for the EC50 in the assay with P. falciparum 3D7 [1] (setting [3]) and in the assay with P. falciparum 3D7 [2] were 4040 nM and 1430 nM, respectively. In addition, in the assay with P. falciparum 3D7 [2], the inhibition of growth at 5 µM is 98%.

As to `COc1ccc(C2Sc3ccccc3N=C3C2=C(O)c2ccccc23)cc1` (centres unmarked) [MMV000563], the EC50 is 238 nM in the assay on P. falciparum 3D7 [1] (source GNF) and 845 nM in the assay with P. falciparum 3D7 [2]. In addition, the inhibition of growth at 5 µM with P. falciparum 3D7 [2] came out at 96%.

On to `CCc1ccc(Nc2cc(C)c3ccc(O)cc3n2)cc1` [MMV000570], for which, in the assay with P. falciparum 3D7 [1] (source StJude (SJ id)), the EC50 is 732 nM. In addition, in the assay on P. falciparum 3D7 [2], the EC50 came out at 194 nM and the inhibition of growth at 5 µM stood at 98%.

With `COc1ccc(-c2cc(=O)oc3c4c(ccc23)OCN(Cc2ccc(F)cc2)C4)cc1` [MMV000604], the EC50 was 5210 nM with P. falciparum 3D7 [1] (source StJude (SJ ids)) and 735 nM in the assay with P. falciparum 3D7 [2]. Besides, the inhibition of growth at 5 µM with P. falciparum 3D7 [2] is 96%.

For `COc1ccc(C(O)(CCC(C)C)C(CN2CCOCC2)c2ccc(Cl)cc2)cc1` (centres unmarked) [MMV000617], in the assay on P. falciparum 3D7 [1] (source StJude (SJ ids)), the EC50 was 4610 nM. Besides, in the assay with P. falciparum 3D7 [2], the inhibition of growth at 5 µM came out at 97%.

For `CCCCC(O)(c1ccc(Cl)cc1)C(CN1CCOCC1)c1ccc(Cl)cc1` (centres unmarked) [MMV000619], the EC50 in the assay with P. falciparum 3D7 [1] (source StJude (SJ ids)) is 4010 nM. In the assay on P. falciparum 3D7 [2], the EC50 turned out to be 1380 nM and the inhibition of growth at 5 µM turned out to be 98%.

As for `CC(O)(c1ccc(Cl)cc1)C(CN1CCCCC1)c1ccccc1` (centres unmarked) [MMV000620], the EC50 in the assay on P. falciparum 3D7 [1] (source StJude) was 916 nM. In addition, the inhibition of growth at 5 µM in the assay on P. falciparum 3D7 [2] came out at 94%.

With `CCCCCCC(O)(c1ccc(F)cc1)C(CN1CCOCC1)c1ccccc1` (centres unmarked) [MMV000621], the EC50 in the assay on P. falciparum 3D7 [1] (source StJude (SJ ids)) was 3180 nM. The inhibition of growth at 5 µM with P. falciparum 3D7 [2] was found to be 93%.

For the compound `CC1CCCCN1CCCNC(=O)c1ccc2c(c1)sc1nc(-c3ccc(F)cc3)cn12` (centres unmarked) [MMV000634], the EC50 with P. falciparum 3D7 [1] (source StJude) is 634 nM. Also, in the assay on P. falciparum 3D7 [2], the EC50 was 648 nM and the inhibition of growth at 5 µM turned out to be 98%.

With `COc1ccc(NC(=O)C2c3ccccc3C(=O)N(CC(C)C)C2c2cccs2)cc1Cl` (centres unmarked) [MMV000642], the EC50 with P. falciparum 3D7 [1] (source GNF (GNF-Pf id)) was 91.4 nM; with P. falciparum 3D7 [1] (source StJude (SJ id)), 119 nM; with P. falciparum 3D7 [2] it was 20.2 nM. Also, the inhibition of growth at 5 µM in the assay on P. falciparum 3D7 [2] is 100%.

Turning to `COc1ccccc1CNC(=O)C1c2ccccc2C(=O)N(CC(C)C)C1c1cccs1` (centres unmarked) [MMV000648], in the assay on P. falciparum 3D7 [1] (source StJude), the EC50 was 3160 nM. Besides, the inhibition of growth at 5 µM in the assay with P. falciparum 3D7 [2] was determined as 97%.

For `CCOc1ccccc1CNC(=O)C1c2ccccc2C(=O)N(CC(C)C)C1c1cccs1` (centres unmarked) [MMV000653], in the assay with P. falciparum 3D7 [1] (source StJude), the EC50 was 1430 nM. Moreover, in the assay with P. falciparum 3D7 [2], the EC50 is 1320 nM and the inhibition of growth at 5 µM was 97%.

With `COc1ccc(NC(=O)C2c3ccccc3C(=O)N(CC(C)C)C2c2cccs2)cc1` (centres unmarked) [MMV000662], the EC50 with P. falciparum 3D7 [1] (source StJude (SJ id)) is 102 nM. For the same compound, in the assay on P. falciparum 3D7 [2], the EC50 turned out to be 36.7 nM and the inhibition of growth at 5 µM turned out to be 100%.

In the case of `Cc1ccc(C2CC(C(F)(F)F)n3nc(C(=O)N4CCN(C(c5ccccc5)c5ccccc5)CC4)cc3N2)cc1` (centres unmarked) [MMV000699], the EC50 is 668 nM in the assay with P. falciparum 3D7 [1] (source StJude (SJ ids)) and 454 nM with P. falciparum 3D7 [2]. For the same compound, the inhibition of growth at 5 µM in the assay with P. falciparum 3D7 [2] came out at 98%.

With `Cc1ccnc(NC(c2cccc(OCc3ccccc3)c2)c2ccc3cccnc3c2O)c1` (centres unmarked) [MMV000720], the EC50 was 864 nM in the assay on P. falciparum 3D7 [1] (source GSK (TCMDC ids)), 1810 nM in the assay with P. falciparum 3D7 [1] (source StJude (SJ ids)) and 1020 nM with P. falciparum 3D7 [2]. For the same compound, the inhibition of growth at 5 µM in the assay with P. falciparum 3D7 [2] is 97%.
